Two molecules from publication PMC11249626, “Fluorophore-Labeled Pyrrolones Targeting the Intracellular Allosteric Binding Site of the Chemokine Receptor CCR1” (ACS Pharmacology & Translational Science, 2024) can be followed below.

One experiment addresses T1, CCR1 (Homo sapiens, UniProt P32246).
T1 sequence (P32246 1-355): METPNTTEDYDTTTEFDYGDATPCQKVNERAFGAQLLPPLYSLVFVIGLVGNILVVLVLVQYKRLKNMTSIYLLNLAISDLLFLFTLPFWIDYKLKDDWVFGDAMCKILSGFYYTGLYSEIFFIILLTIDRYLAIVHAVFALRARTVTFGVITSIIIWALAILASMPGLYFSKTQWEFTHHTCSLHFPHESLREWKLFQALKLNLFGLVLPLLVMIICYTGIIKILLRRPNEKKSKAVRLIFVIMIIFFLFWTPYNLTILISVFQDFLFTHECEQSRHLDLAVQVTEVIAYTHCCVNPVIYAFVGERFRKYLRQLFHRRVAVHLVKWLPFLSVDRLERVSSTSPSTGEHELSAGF
Briefly: Membrane-based NanoBRET competition kinetic assay with 12 (1000 nM) and CCR1_Nluc membranes. The format is binding. More on the design: Promega pNLF1-C (Nluc) #CCR010TN00; host or cells: HEK293T, transient (PEI). For orientation: Bioluminescence resonance energy transfer reports proximity on the nanometre scale.

In the next experiment the target is T2, CXCR2 (Homo sapiens, UniProt P25025).
T2 construct: host or cells: HEK293T, transient
T2 sequence (P25025 1-360): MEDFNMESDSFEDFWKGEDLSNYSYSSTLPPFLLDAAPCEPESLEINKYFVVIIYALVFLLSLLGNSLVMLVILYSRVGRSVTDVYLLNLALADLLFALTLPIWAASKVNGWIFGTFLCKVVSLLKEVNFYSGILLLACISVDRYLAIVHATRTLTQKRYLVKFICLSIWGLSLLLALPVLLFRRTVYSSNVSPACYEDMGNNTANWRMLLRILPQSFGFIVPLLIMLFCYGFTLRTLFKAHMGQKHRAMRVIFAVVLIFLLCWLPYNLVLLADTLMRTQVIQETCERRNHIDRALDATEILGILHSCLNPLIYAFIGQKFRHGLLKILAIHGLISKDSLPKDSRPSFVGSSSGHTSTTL
The experiment is described as follows: Membrane-based NanoBRET saturation binding assay, CXCR2_Nluc membranes. To be noted: compared with CCR1. The procedure: Emission spectra of Nluc -labeled CCR1 (CCR1_Nluc) protein: The emission spectra of CCR1_Nluc has already been reported by Toy et al.1 For a confirmation of the reported data with new CCR1_Nluc membrane batches, furimazine (Promega, Mannheim, Germany 1:2000) was added to the membrane preparations (2 µg protein/well). […]
NanoBRET binding assays: Membrane-based NanoBRET saturation assay: For the establishment of our NanoBRET binding assay, we referred to recently published protocols. […]
Then, 20 µL of the membrane preparations diluted in assay buffer (3 µg total protein/well) were added and the plates were incubated for 90 min at 37 °C. Subsequently, 5 µL of a furimazine solution (Promega, Mannheim, Germany, final assay dilution: 1:5,000) were added to each well (final assay volume: 35 µL) before measuring luminescence with a CLARIOstar microplate reader using 620/10 nm and 475/30 nm emission filters after 5 min of incubation in the dark. Bioluminescence resonance energy transfer (BRET) was determined as the ratio of acceptor fluorescence and donor luminescence. […] Specific binding signals were calculated as a difference of total and non-specific binding. If required, netBRET values were calculated as the difference between total BRET values and the values obtained in the absence of a fluorescent ligand. […]

pKi: −log10 of the molar value.

A word on the koff: it is the rate constant with which the complex falls apart. A higher koff goes with fast dissociation. The term kon denotes a measure of how fast the partners come together. By pKi is commonly meant −log10 of the Ki, conventionally taken in molar units. As for `CC(=O)C1=C(O)C(=O)N(c2ccc(Br)cc2F)C1C1CCCCC1` (centres unmarked) [compound 5, reference compound], at CCR1 (CCR1_Nluc membranes), the off-rate (koff) was 0.0019 s⁻¹, the kon is 723000 M⁻¹ s⁻¹ and the “tr (kinetic competition)” value came out at 9.1 ± 0.5 min. In addition, the negative-log Ki (pKi) at CCR1 (kinetic competition, read-out: Ki(kin.)) is 8.58.

Take `CN(C)c1ccc2c(-c3cc(C(=O)NCCOCCOCc4cn(CCCC(=O)C5=C(O)C(=O)N(c6ccc(Br)cc6F)C5C5CCCCC5)nn4)ccc3C(=O)[O-])c3ccc(=[N+](C)C)cc-3oc2c1` (centres unmarked) [compound 12]: on CXCR2, the “Binding signal for CXCR2” value was “much weaker”.
